Laboratory results: patent US20220380368A1, “SPIROCYCLIC ANDROGEN RECEPTOR PROTEIN DEGRADERS” (THE REGENTS OF THE UNIVERSITY OF MICHIGAN, priority 2019, published 2022)
Like-named read-outs stand apart in the source and are kept apart here.

Assay: Mouse PK studies after oral and IV dosing
Format: in vivo
Details: for F: PO 3 mg/kg vs IV 1 mg/kg; for AUC(0-t) / clearance / half-life / Vd / Cmax / Tmax: in vivo; for clearance: read-out: IV Cl (converted); for Vd: read-out: IV VSS
Description: The pharmacokinetics of representative Compounds of the Disclosure were determined after oral and IV dosing at the concentrations indicated in mouse (Table 7). […] The vehicles used in these studies are either (i) 10% PEG400+90% PBS (adjusted to pH to 8.0 by 0.5 N NaOH); or (ii) 100% PEG200.

[1] = iv, 1 mg/kg, IV, dose 1 mg/kg, read-out: IV AUC(0 − t)
[2] = iv, 1 mg/kg, IV, dose 1 mg/kg, read-out: IV T1/2 (converted)
[3] = po, 3 mg/kg, PO, dose 3 mg/kg, read-out: PO AUC(0 − t)
[4] = po, 3 mg/kg, PO, dose 3 mg/kg, read-out: PO T1/2 (converted)

| SMILES | F [%] | AUC(0-t) [1] [ng·h/mL] | clearance (iv, 1 mg/kg, IV, dose 1 mg/kg) [mL/min/kg] | half-life [2] [h] | Vd (iv, 1 mg/kg, IV, dose 1 mg/kg) [L/kg] | Cmax (po, 3 mg/kg) [ng/mL] | Tmax (po, 3 mg/kg) [h] | AUC(0-t) [3] [ng·h/mL] | half-life [4] [h] |
| --- | --- | --- | --- | --- | --- | --- | --- | --- | --- |
| C[C@H]1CC2(CCN(c3ccc(C(=O)N4CCN(C5CN(c6ccc7c(c6)C(=O)N(C6CCC(=O)NC6=O)C7)C5)CC4)cc3)CC2)CN1c1ccc(C#N)c(Cl)c1 (stereo partly drawn) [Cpd. No. 348, 2-chloro-4-((3S)-8-(4-(4-(1-(2-(2,6-dioxopiperidin-3-yl)-3-oxoisoindolin-5-yl)azetidin-3-yl)piperazine-1-carbonyl)phenyl)-3-methyl-2,8-diazaspiro[4.5]decan-2-yl)benzonitrile] | 12 | 10100 | 1.67 | 7.5 | 0.9 | 334 | 2 | 3740 | 7.6 |
| C[C@H]1CC2(CCN(c3ccc(C(=O)N4CCN(C5CN(c6cc7c(cc6F)C(=O)N(C6CCC(=O)NC6=O)C7=O)C5)CC4)cc3)CC2)CN1c1ccc(C#N)c(Cl)c1 (stereo partly drawn) [Cpd. No. 344, 2-chloro-4-((3S)-8-(4-(4-(1-(2-(2,6-dioxopiperidin-3-yl)-6-fluoro-1,3-dioxoisoindolin-5-yl)azetidin-3-yl)piperazine-1-carbonyl)phenyl)-3-methyl-2,8-diazaspiro[4.5]decan-2-yl)benzonitrile] | 64 | 4930 | 3.17 | 6.9 | 1.58 | 841 | 4 | 9470 | 6 |
| C[C@H]1CC2(CCN(c3ccc(C(=O)N4CCN(C5CCN(c6ccc7c(c6)C(=O)N(C6CCC(=O)NC6=O)C7=O)CC5)CC4)cc3)CC2)CN1c1ccc(C#N)c(Cl)c1 (stereo partly drawn) [Cpd. No. 302] | 27 | 5030 | 3.17 | 7 | 1.45 | 526 | 1.3 | 4050 | 7.3 |
| C[C@H]1CC2(CCN(c3ccc(C(=O)N4CCN(C5CN(c6ccc7c(c6)CN(C6CCC(=O)NC6=O)C7=O)C5)CC4)cc3)CC2)CN1c1ccc(C#N)c(Cl)c1 (stereo partly drawn) [Cpd. No. 346, 2-chloro-4-((3S)-8-(4-(4-(1-(2-(2,6-dioxopiperidin-3-yl)-1-oxoisoindolin-5-yl)azetidin-3-yl)piperazine-1-carbonyl)phenyl)-3-methyl-2,8-diazaspiro[4.5]decan-2-yl)benzonitrile] | 32 | 3030 | 5 | 8.8 | 2.7 | 260 | 3.3 | 2950 | 7.2 |
| C[C@H]1CC2(CCN(c3ccc(C(=O)N4CC[C@@H](CN5CCN(c6ccc7c(c6)C(=O)N(C6CCC(=O)NC6=O)C7=O)CC5)C4)cc3)CC2)CN1c1ccc(C#N)c(Cl)c1 (stereo partly drawn) [compound 448] | 26 | 78 | 203 | 2.74 | 25.3 | 16 | 1.67 | 60 | 4.78 |
| C[C@H]1CC2(CCN(c3ccc(C(=O)N4CCN(C5CCN(c6cc7c(cc6F)C(=O)N(C6CCC(=O)NC6=O)C7=O)CC5)CC4)cc3)CC2)CN1c1ccc(C#N)c(Cl)c1 (stereo partly drawn) [Cpd. No. 540] | 61 | 7990 | 2 | 7.3 | 0.96 | 1130 | 3.3 | 14500 | 7.8 |
| C[C@H]1CC2(CCN(c3ccc(C(=O)N4CCC(CN5CCN(c6cc7c(cc6F)C(=O)N(C6CCC(=O)NC6=O)C7=O)CC5)CC4)cc3)CC2)CN1c1ccc(C#N)c(Cl)c1 (stereo partly drawn) [Cpd. No. 444, 2-chloro-4-((3S)-8-(4-(4-((4-(2-(2,6-dioxopiperidin-3-yl)-6-fluoro-1,3-dioxoisoindolin-5-yl)piperazin-1-yl)methyl)piperidine-1-carbonyl)phenyl)-3-methyl-2,8-diazaspiro[4.5]decan-2-yl)benzonitrile] | 68 | 7800 | 1.83 | 8.3 | 1.2 | 1250 | 4 | 16000 | 6.9 |
| C[C@H]1CC2(CCN(c3ccc(C(=O)N4CCN(CC5CCN(c6cc7c(cc6F)C(=O)N(C6CCC(=O)NC6=O)C7=O)CC5)CC4)nn3)CC2)CN1c1ccc(C#N)c(Cl)c1 (stereo partly drawn) [compound 588] | 54 | 1080 | 13.8 | 9.5 | 6.76 | 347 | 1 | 1760 | 5.9 |
| C[C@H]1CC2(CCN(c3ccc(C(=O)N4CCC(CN5CCN(c6ccc7c(c6)C(=O)N(C6CCC(=O)NC6=O)C7=O)CC5)CC4)cc3)CC2)CN1c1ccc(C#N)c(Cl)c1 (stereo partly drawn) [Cpd. No. 442, 2-chloro-4-((3S)-8-(4-(4-((4-(2-(2,6-dioxopiperidin-3-yl)-1,3-dioxoisoindolin-5-yl)piperazin-1-yl)methyl)piperidine-1-carbonyl)phenyl)-3-methyl-2,8-diazaspiro[4.5]decan-2-yl)benzonitrile] | 42 | 5240 | 2.83 | 9.2 | 1.7 | 847 | 2.67 | 6570 | 5.37 |
| C[C@H]1CC2(CCN(c3cnc(C(=O)N4CCC(CN5Cc6cc7c(cc6C5)C(=O)N(C5CCC(=O)NC5=O)C7=O)CC4)cn3)CC2)CN1c1ccc(C#N)c(Cl)c1 (stereo partly drawn) [Cpd. No. 495, 2-chloro-4-((3S)-8-(5-(4-((6-(2,6-dioxopiperidin-3-yl)-5,7-dioxo-3,5,6,7-tetrahydropyrrolo[3,4-f]isoindol-2(1H)-yl)methyl)piperidine-1-carbonyl)pyrazin-2-yl)-3-methyl-2,8-diazaspiro[4.5]decan-2-yl)benzonitrile] | 107 | 950 | 16.2 | 2.6 | 2.59 | 722 | 0.8 | 3050 | 3.4 |
| C[C@H]1CC2(CCN(c3ccc(C(=O)N4CCC(N5CCN(c6ccc7c(c6)C(=O)N(C6CCC(=O)NC6=O)C7=O)CC5)CC4)cc3)CC2)CN1c1ccc(C#N)c(Cl)c1 (stereo partly drawn) [Cpd. No. 443, 2-chloro-4-((3S)-8-(4-(4-(4-(2-(2,6-dioxopiperidin-3-yl)-1,3-dioxoisoindolin-5-yl)piperazin-1-yl)piperidine-1-carbonyl)phenyl)-3-methyl-2,8-diazaspiro[4.5]decan-2-yl)benzonitrile] | 67 | 8440 | 2 | 7.1 | 1.02 | 1870 | 2 | 15500 | 5.38 |
